Measured values reported in US11390661B2, “HCMV entry inhibitors” (priority 2016, dated 2022).
Ends that are not written are not given here.

How the values were obtained:
HCMV strain TB40/E [1] = format: cell-based, Human cytomegalovirus; conditions: HFFs
Procedure: For screening the PDGFRα peptides for their neutralizing capacity a recently developed Gaussia-Luciferase-Assay was utilized (10). The Gaussia luciferase is secreted into the cell culture supernatants, therefore it is not necessary to fix the cells and instead a sample of the Gaussia containing supernatant is taken and mixed with the substrate coelenterazine (PjK) at a final concentration of 0.2 μg/ml. The resulting light emission was detected at 495 nm. For all obtained values background signals were subtracted and neutralization efficiency was determined relative to the control samples which contained only virus, no peptide.
Cell free preparations of strain TB40/E were pre-incubated with the individual peptides at concentrations reaching from 0.05-50 nmol/ml for 2 h and the mixtures were then incubated with HFF cultures in a 96-well format. The various peptides differed greatly regarding their inhibitory potential with a region between aa120 and aa280 being absolutely ineffective and the peptides surrounding this region having the highest anti-HCMV effect (FIG. 9).

HCMV strain TB40/E [2] = experiment: Inhibition of infection of fibroblasts (HFFs), IE antigen immunofluorescence; format: cell-based, Human cytomegalovirus; conditions: increasing concentrations, pre-incubated 2 h
Procedure: For testing the inhibitory effect of antivirals or fusion proteins on HCMV, the respective inhibitors were diluted in MEM and mixed with infectious supernatants, the mixtures were incubated for 2 h at 37° C. before addition to the cells. For fibroblast infection the virus-inhibitor mixture was incubated on the cells for about 24 h. If endothelial cells were included in the experiment, all cells were supplied with their respective maintenance media after 2 h, and further incubated for 22 h.
Infection efficiencies were determined by immunofluorescence staining for viral proteins. For fixation and permeabilization the cells were incubated with 80% acetone for 5 min. For HCMV infected cells the immediate early proteins pUL122/123 were detected with a mouse monoclonal (clone E13, Argene) and visualized using a Cy3 conjugated goat anti-mouse secondary antibody (Jackson Immuno Research). HSV infected cultures were stained 6 h post infection for ICP0 using a mouse monoclonal (clone 11060, Santa Cruz) and goat anti-mouse AF488 (life technologies). DAPI was used to locate nuclei. Infection rates were determined by counting the number of cell nuclei positive for the respective viral protein, as well as the total number of nuclei per image. For each condition three images were evaluated.
To test this, the inventors pre-incubated cell free preparations of HCMV strain TB40/E with variable concentrations of soluble PDGFR-alpha-Fc chimeras for 2 h before adding them to HFFs and HECs. After 2 h the virus was removed and replaced with the appropriate cell culture medium for an overnight incubation. Cultures were then fixed, and the fraction of infected cells was determined by indirect immunofluorescence staining of viral IE antigens.
Cell free preparations of TB40/E were pre-incubated with increasing concentrations of the various Fc chimeras for 2 h. HFFs were then incubated with the mixtures for 2 h followed by a medium exchange and an overnight incubation.

HCMV particles = experiment: Binding of chimeric receptors (Fc-fusion proteins) to HCMV particles; set-up: species or system Human cytomegalovirus; conditions: particles pre-incubated with Fc-fusion protein, attached to cells on ice
Procedure: To assess the binding of Fc-Proteins to virus particles, HFFs were seeded at a density of 40,000 cells per well on IBIDI plates 1 day prior to infection. Virus preparations were pre-incubated with Fc-fusion proteins at a final concentration of 500 ng/ml for 2 h at 37° C. The virus/Fc-protein mixtures were incubated with the cells for 1.5 h on ice. Before fixation with 80% acetone, the cells were washed once with MEM. For staining of viral particles mouse hybridoma recognizing the abundant viral protein pp150 (generously provided by W. Britt, Sanchez 2000) used.
The inventors tested this by staining of adsorbed virus particles with the Fc-fusion proteins. […] Virus particles were stained for the capsid protein pp150 and bound Fc-fusion proteins.
The inventors analyzed the mode of inhibition by PDGFR-alpha-Fc. For this, the binding of different concentrations of the fusion protein was quantified by assessing the particle intensities after staining with anti-human antibody (FIG. 5). […] (FIGS. 4 and 5).

Molecule	inhibition at 10 nmol/ml (HCMV strain TB40/E [1]; 10 nmol/ml)	EC50 (HCMV strain TB40/E [1]; pre-incubated 2 h, read-out: EC50 of inhibition of HCMV infection by peptide) [nM]	inhibitory potential of Fc chimeras on HCMV infection of HFFs (HCMV strain TB40/E [2])	binding of Fc-fusion protein to virus particles (anti-human antibody staining) (HCMV particles)
GRHIYIYVPDPDVAFVPLGMTDYLVIVEDDDSAIIPCRTT [peptide between aa90 and aa130]	almost complete inhibition	2000	–	–
PDGFR-beta-Fc: recombinant Fc-fusion protein obtained from R&D (385-PR-100), comparison chimera (protein, left off: a dimerising Fc or GST, recombinant Fc-fusion protein obtained from R&D (385-PR-100), comparison chimera) LVVTPPGPELVLNVSSTFVLTCSGSAPVVWERMSQEPPQEMAKAQDGTFSSVLTLTNLTGLDTGEYFCTHNDSRGLETDERKRLYIFVPDPTVGFLPNDAEELFIFLTEITEITIPCRVTDPQLVVTLHEKKGDVALPVPYDHQRGFSGIFEDRSYICKTTIGDREVDSDAYYVYRLQVSSINVSVNAVQTVVRQGENITLMCIVIGNEVVNFEWTYPRKESGRLVEPVTDFLLDMPYHIRSILHIPSAELEDSGTYTCNVTESVNDHQDEKAINITVVESGYVRLLGEVGTLQFAELHRSRTLQVVFEAYPPPTVLWFKDNRTLGDSSAGEIALSTRNVSETRYVSELTLVRVKVAEAGHYTMRAFHEDAEVQLSFQLQINVPVRVLELSESHPDSGEQTVRCRGRGMPQPNIIWSACRDLKRCPRELPPTLLGNSSEEESQLETNVTYWEEEQEFEVVSTLRLQHVDRPLSVRCTLRNAVGQDTQEVIVVPHSLPF	–	–	neither PDGFR-beta-Fc nor EGFR-Fc had an effect	visualized only those particles that were pre-treated with PDGFR-alpha-Fc
